Results as given in US11963977B2, “Generating pluripotent cells de novo” (VCell Therapeutics, Inc., priority 2012, dated 2024).

Assays:
Assay type in all cases: cell-based, mouse
Details in all cases: 1 week-old, after 1 week of stress treatment, SLO 10 μg/mL, ATP 2.4 mM, Ca 2 mM CaCl2
Fat somatic cells = assay: Percent of cells demonstrating pluripotent phenotype after stress treatment, fat cells
Source text: (§1) Stress alteration of mature somatic cells procured from various adult tissues. To examine whether ACCs could be generated not only mature lymphocytes but also other types of somatic cells, brain, skin, muscle, fat, bone marrow, lung and liver were harvested from Oct4-GFP (GOF) mice^8. Cells were isolated from the tissue samples, dissociated into single cells, and treated with different physical and or chemical stress conditions. The efficiency of the process to alter the cells differed as a function of both the source of cells and the stress condition(s) to which the cells were exposed (FIG. 7A). The ability of stress to alter mature cells to express Oct4, differed depending on the derivation of cells, but stress was able to alter cells to express Oct4 to some degree in mature cells derived from all three germ layers (FIG. 7A). ACC colonies derived from any mature tissue expressed pluripotent markers, E-cadherin, Nanog, PCAM-1 and AP (data not shown), and ES specific marker genes (FIG. 7B). Significant physical and chemical stresses altered mature somatic cells to revert to a stem cell state, despite of the source of tissues and derivation of the germ layers.
(§2) Exposure to external stimuli—stress treatment. […]
(§3) Fluorescence-Activated Cell Sorting and Flow Cytometry. […] Cells were sorted on a BD FACSAria SORP and analyzed on a BD LSRII with BD FACSDiva Software (BD Biosciences).

Fibroblast = assay: Percent of cells demonstrating pluripotent phenotype after stress treatment, fibroblasts
Source text: as §1, §2, §3

[1] = test system: Bone Marrow somatic cells; assay: Percent of cells demonstrating pluripotent phenotype after stress treatment, bone marrow cells
Source text: as §1, §2, §3

Brain somatic cells = assay: Percent of cells demonstrating pluripotent phenotype after stress treatment, brain cells
Muscle somatic cells = assay: Percent of cells demonstrating pluripotent phenotype after stress treatment, muscle cells
Source text: as §1, §2, §3

Lung somatic cells = assay: Percent of cells demonstrating pluripotent phenotype after stress treatment, lung cells
Source text: as §1, §2, §3

Substance: streptolysin O [SLO]
- Percent of cells demonstrating pluripotent phenotype (Fat somatic cells): 32.8%
- Percent of cells demonstrating pluripotent phenotype (Fibroblast): 15.2%
- Percent of cells demonstrating pluripotent phenotype [1]: 13.2%
- Percent of cells demonstrating pluripotent phenotype (Brain somatic cells): 10.3%
- Percent of cells demonstrating pluripotent phenotype (Muscle somatic cells): 20.5%
- Percent of cells demonstrating pluripotent phenotype (Lung somatic cells): 18.4%
